Measured values published in publication PMC8677766 (Nature Communications, 2021).

Molecular target: T1, hRpn13 (Homo sapiens, UniProt Q16186)
T1 construct: gene ADRM1; hRpn13 Pru (1–150)
Test: ITC; NMR structure; 2D NMR; LC-MS adduct; tryptophan quenching
Format: binding

T1 sequence (Q16186 1-150): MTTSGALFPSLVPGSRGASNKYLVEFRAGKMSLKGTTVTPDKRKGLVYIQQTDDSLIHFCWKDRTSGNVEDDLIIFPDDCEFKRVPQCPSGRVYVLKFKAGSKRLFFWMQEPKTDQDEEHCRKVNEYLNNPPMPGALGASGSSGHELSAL

For `Cc1ccc(C(=O)Nc2cccc(/C=C(\C#N)C(=O)Nc3ccccc3C(=O)O)c2)cc1` [XL5], the Kd was 1480 ± 520 nM.
